# According to US7517874B2 (priority 2007, dated 2009):
# Where two headings read alike, the source gives them in different places.
# Experiments:
# [1] = target: human CB1 receptor (hCB1) (Homo sapiens, UniProt P21554); test: cell-based; format: cell-based; settings: for +/− HCB1: agonist or inverse agonist at hCB1
# How it was run: (§1)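 First, cells in IBMX-containing HEPES-buffered HBSS are raised to elevated cAMP with 2-8 μM NKH-477 for 30 min. Data are normalised to the forskolin and forskolin + 1 μM CP55,940 controls.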
# [2] = target: T1, rat CB2 receptor (rCB2) (Rattus norvegicus, UniProt Q9QZN9); test: cell-based; format: cell-based; settings: for +/− RCB2: agonist or inverse agonist at rCB2
# T1 sequence (Q9QZN9 1-360): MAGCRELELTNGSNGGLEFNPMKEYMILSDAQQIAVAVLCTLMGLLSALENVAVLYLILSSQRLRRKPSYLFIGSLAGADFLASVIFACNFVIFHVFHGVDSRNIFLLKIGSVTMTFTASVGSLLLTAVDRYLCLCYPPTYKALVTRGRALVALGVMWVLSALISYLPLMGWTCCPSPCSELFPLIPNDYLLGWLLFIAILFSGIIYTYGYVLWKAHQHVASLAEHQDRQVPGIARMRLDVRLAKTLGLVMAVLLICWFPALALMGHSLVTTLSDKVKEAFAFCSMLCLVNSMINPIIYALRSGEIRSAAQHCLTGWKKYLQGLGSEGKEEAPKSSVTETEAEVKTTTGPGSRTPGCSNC
# How it was run: as §1
# [3] = groups >100 nM-10 μM and >10 μM, cAMP, CHO-K1 hCB1, read-out: EC50 HCB1
# [4] = groups >100 nM-10 μM and >10 μM, cAMP, CHO-K1 rCB2, read-out: EC50 RCB2
# Sequence of human CB1 receptor (hCB1) (P21554 whole entry): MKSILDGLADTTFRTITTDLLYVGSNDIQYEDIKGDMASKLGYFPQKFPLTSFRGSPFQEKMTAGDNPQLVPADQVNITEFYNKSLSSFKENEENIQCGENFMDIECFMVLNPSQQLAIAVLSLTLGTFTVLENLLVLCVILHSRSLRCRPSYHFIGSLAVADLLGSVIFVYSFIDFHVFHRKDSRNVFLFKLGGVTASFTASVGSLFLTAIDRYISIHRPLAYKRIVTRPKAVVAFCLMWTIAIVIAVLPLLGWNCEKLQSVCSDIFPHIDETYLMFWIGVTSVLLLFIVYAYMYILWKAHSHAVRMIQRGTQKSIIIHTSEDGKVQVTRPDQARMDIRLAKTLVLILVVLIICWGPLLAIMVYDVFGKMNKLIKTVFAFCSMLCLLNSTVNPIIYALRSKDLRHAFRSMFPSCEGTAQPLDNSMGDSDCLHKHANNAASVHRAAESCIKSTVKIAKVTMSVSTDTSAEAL
Structure (SMILES),EC50 [1] [nM],+/− RCB2 [2],further results
"CNC(=O)[C@@H](NC(=O)c1nc(-c2cccc(Cl)c2)n2c1CNCC2)C(C)(C)C [Compound 18, (S)-3-(3-chlorophenyl)-N-(3,3-dimethyl-1-(methylamino)-1-oxobutan-2-yl)-5,6,7,8-tetrahydroimidazo[1,5-a]pyrazine-1-carboxamide]",> 10000,−,
"CNC(=O)[C@@H](NC(=O)c1nc(CCCN2CCCCC2)n2c1CN(C)CC2)C(C)(C)C [Compound 307, (S)-N-(3,3-dimethyl-1-(methylamino)-1-oxobutan-2-yl)-7-methyl-3-(3-(piperidin-1-yl)propyl)-5,6,7,8-tetrahydroimidazo[1,5-a]pyrazine-1-carboxamide]",> 10000,+,
"COC(=O)c1cccc(CNC(=O)c2nc(-c3ccc(Cl)cc3F)n3c2CN(C)CC3)c1 [Compound 224, methyl 3-((3-(4-chloro-2-fluorophenyl)-7-methyl-5,6,7,8-tetrahydroimidazo[1,5-a]pyrazine-1-carboxamido)methyl)benzoate]",,−,"EC50 [1, 3]: > 10000 nM"
"CN1CCn2c(-c3ccc(Cl)cc3F)nc(C(=O)N3CCN(C(=O)c4ccccc4)CC3)c2C1 [Compound 210, (4-benzoylpiperazin-1-yl)(3-(4-chloro-2-fluorophenyl)-7-methyl-5,6,7,8-tetrahydroimidazo[1,5-a]pyrazin-1-yl)methanone]",,,"EC50 [1, 3]: > 10000 nM; EC50 [2, 4]: > 10000 nM"
CNC(=O)[C@@H](NC(=O)c1nc(C2=CCCC2)n2c1CN(C)CCC2)C(C)(C)C [Compound 456],> 10000,+,
"CNC(=O)[C@@H](NC(=O)c1nc(-c2ccccc2)n2c1CN(S(=O)(=O)C1CC1)CC2)C(C)(C)C [Compound 100, (S)-7-(cyclopropylsulfonyl)-N-(3,3-dimethyl-1-(methylamino)-1-oxobutan-2-yl)-3-phenyl-5,6,7,8-tetrahydroimidazo[1,5-a]pyrazine-1-carboxamide]",> 10000,−,
CNC(=O)[C@@H](NC(=O)c1nc(-c2cccc3cccnc23)n2c1CN(C)CCC2)C(C)(C)C [Compound 444],> 10000,−,
"CC(C)C[C@H](NC(=O)c1nc(-c2ccc(Cl)cc2F)n2c1CN(C)CCC2)C(N)=O [Compound 564, (S)-N-(1-amino-4-methyl-1-oxopentan-2-yl)-3-(4-chloro-2-fluorophenyl)-8-methyl-6,7,8,9-tetrahydro-5H-imidazo[1,5-a][1,4]diazepine-1-carboxamide]",,+,+/− HCB1 [1]: +
"CNC(=O)c1cccc(-c2nc(C(=O)N[C@H](C(=O)NC)C(C)(C)C)c3n2CCCN(C)C3)c1 [Compound 391, (S)-N-(3,3-dimethyl-1-(methylamino)-1-oxobutan-2-yl)-8-methyl-3-(3-(methylcarbamoyl)phenyl)-6,7,8,9-tetrahydro-5H-imidazo[1,5-a][1,4]diazepine-1-carboxamide]",> 10000,,EC50 [2]: > 10000 nM
"CN1CCn2c(-c3ccc(Cl)cc3F)nc(C(=O)N3CCC4(CCN(C)C4=O)CC3)c2C1 [Compound 221, 8-(3-(4-chloro-2-fluorophenyl)-7-methyl-5,6,7,8-tetrahydroimidazo[1,5-a]pyrazine-1-carbonyl)-2-methyl-2,8-diazaspiro[4.5]decan-1-one]",> 10000,,EC50 [2]: > 10000 nM
"CNC(=O)[C@@H](NC(=O)c1nc(/C=C/c2ccccc2)n2c1CN(C)CCC2)C(C)(C)C [Compound 336, (S,E)-N-(3,3-dimethyl-1-(methylamino)-1-oxobutan-2-yl)-8-methyl-3-styryl-6,7,8,9-tetrahydro-5H-imidazo[1,5-a][1,4]diazepine-1-carboxamide]",> 10000,−,
"CNC(=O)[C@@H](NC(=O)c1nc(Cc2ccccc2)n2c1CNCC2)C(C)(C)C [Compound 13, (S)-3-benzyl-N-(3,3-dimethyl-1-(methylamino)-1-oxobutan-2-yl)-5,6,7,8-tetrahydroimidazo[1,5-a]pyrazine-1-carboxamide]",> 10000,,EC50 [2]: > 10000 nM
"CN1CCCn2c(-c3ccccc3)nc(C(=O)N[C@H](C(=O)N(C)C)C(C)(C)C)c2C1 [Compound 557, (S)-N-(1-(dimethylamino)-3,3-dimethyl-1-oxobutan-2-yl)-8-methyl-3-phenyl-6,7,8,9-tetrahydro-5H-imidazo[1,5-a][1,4]diazepine-1-carboxamide]",> 10000,+,
"CNC(=O)[C@@H](NC(=O)c1nc(-c2ccccc2)n2c1CN(c1cnccn1)CC2)C(C)(C)C [Compound 301, (S)-N-(3,3-dimethyl-1-(methylamino)-1-oxobutan-2-yl)-3-phenyl-7-(pyrazin-2-yl)-5,6,7,8-tetrahydroimidazo[1,5-a]pyrazine-1-carboxamide]",> 10000,,EC50 [2]: > 10000 nM
"CNC(=O)[C@@H](NC(=O)c1nc(-c2cccc3ccccc23)n2c1CN(C)CCC2)C(C)(C)C [Compound 417, (S)-N-(3,3-dimethyl-1-(methylamino)-1-oxobutan-2-yl)-8-methyl-3-(naphthalen-1-yl)-6,7,8,9-tetrahydro-5H-imidazo[1,5-a][1,4]diazepine-1-carboxamide]",> 10000,+,
"CNC(=O)[C@@H](NC(=O)c1nc(-c2ccc(C(=O)OC)cc2F)n2c1CN(C)CCC2)C(C)(C)C [Compound 387, (S)-methyl 4-(1-(3,3-dimethyl-1-(methylamino)-1-oxobutan-2-ylcarbamoyl)-8-methyl-6,7,8,9-tetrahydro-5H-imidazo[1,5-a][1,4]diazepin-3-yl)-3-fluorobenzoate]",> 10000,,EC50 [2]: > 10000 nM
"CN1CCn2c(-c3ccccc3)nc(C(=O)NC3(CO)CCCC3)c2C1 [Compound 235, N-(1-(hydroxymethyl)cyclopentyl)-7-methyl-3-phenyl-5,6,7,8-tetrahydroimidazo[1,5-a]pyrazine-1-carboxamide]",> 10000,,EC50 [2]: > 10000 nM
"CCC/C=C/c1nc(C(=O)N[C@H](C(=O)NC)C(C)(C)C)c2n1CCCN(C)C2 [Compound 434, (S,E)-N-(3,3-dimethyl-1-(methylamino)-1-oxobutan-2-yl)-8-methyl-3-(pent-1-enyl)-6,7,8,9-tetrahydro-5H-imidazo[1,5-a][1,4]diazepine-1-carboxamide]",> 10000,+,
"O=C(NC1CCCCC1)c1nc(-c2ccccc2)n2c1CNCC2 [Compound 47, N-cyclohexyl-3-phenyl-5,6,7,8-tetrahydroimidazo[1,5-a]pyrazine-1-carboxamide]",,,"EC50 [1, 3]: > 10000 nM; EC50 [2, 4]: > 10000 nM"
"CNC(=O)[C@@H](NC(=O)c1nc(C=C(C)C)n2c1CN(C)CCC2)C(C)(C)C [Compound 377, (S)-N-(3,3-dimethyl-1-(methylamino)-1-oxobutan-2-yl)-8-methyl-3-(2-methylprop-1-enyl)-6,7,8,9-tetrahydro-5H-imidazo[1,5-a][1,4]diazepine-1-carboxamide]",> 10000,+,
"CNC(=O)[C@@H](NC(=O)c1nc(-c2ccccc2)n2c1CN(C)CC2)C(C)(C)C [Compound 48, (S)-N-(3,3-dimethyl-1-(methylamino)-1-oxobutan-2-yl)-7-methyl-3-phenyl-5,6,7,8-tetrahydroimidazo[1,5-a]pyrazine-1-carboxamide]",> 10000,+,
"CNC(=O)[C@@H](NC(=O)c1nc(C#Cc2cccnc2)n2c1CN(C)CC2)C(C)(C)C [Compound 205, (S)-N-(3,3-dimethyl-1-(methylamino)-1-oxobutan-2-yl)-7-methyl-3-(pyridin-3-ylethynyl)-5,6,7,8-tetrahydroimidazo[1,5-a]pyrazine-1-carboxamide]",> 10000,,EC50 [2]: > 10000 nM
"C[C@H](NC(=O)c1nc(-c2ccccc2)n2c1CN(C)CC2)C(C)(C)C [Compound 51, (S)-N-(3,3-dimethylbutan-2-yl)-7-methyl-3-phenyl-5,6,7,8-tetrahydroimidazo[1,5-a]pyrazine-1-carboxamide]",,,"EC50 [1, 3]: > 10000 nM; EC50 [2, 4]: > 10000 nM"
"CN1CCCn2c(-c3cc(Cl)ccc3F)nc(C(=O)N[C@H](C(=O)N(C)C)C(C)(C)C)c2C1 [Compound 559, (S)-3-(5-chloro-2-fluorophenyl)-N-(1-(dimethylamino)-3,3-dimethyl-1-oxobutan-2-yl)-8-methyl-6,7,8,9-tetrahydro-5H-imidazo[1,5-a][1,4]diazepine-1-carboxamide]",,,+/− HCB1 [1]: +; EC50 [2]: > 10000 nM
"CNC(=O)[C@@H](NC(=O)c1nc(-c2ccc(F)cc2F)n2c1CN(C)CCC2)C(C)(C)C [Compound 355, (S)-3-(2,4-difluorophenyl)-N-(3,3-dimethyl-1-(methylamino)-1-oxobutan-2-yl)-8-methyl-6,7,8,9-tetrahydro-5H-imidazo[1,5-a][1,4]diazepine-1-carboxamide]",,+,+/− HCB1 [1]: +
"CC(C)CCNC(=O)c1nc(-c2ccc(Cl)cc2)n2c1CN(C(=O)C1CC1)CC2 [Compound 131, 3-(4-chlorophenyl)-7-(cyclopropanecarbonyl)-N-isopentyl-5,6,7,8-tetrahydroimidazo[1,5-a]pyrazine-1-carboxamide]",> 10000,−,
"CC(C)CN1CCn2c(-c3ccccc3)nc(C(=O)NCC(C)(C)C)c2C1 [Compound 58, 7-isobutyl-N-neopentyl-3-phenyl-5,6,7,8-tetrahydroimidazo[1,5-a]pyrazine-1-carboxamide]",> 10000,−,
